From patent US20260308159A1, “BICYCLIC HETEROARYLAMIDES HAVING GPR68 MODULATING ACTIVITY” (RECURSION PHARMACEUTICALS, INC., priority 2023, published 2026)
Where two headings read alike, the source gives them in different places.

Molecular target: T1, human GPR68 (Homo sapiens, UniProt Q15743)
T1 construct: encoding full-length human GPR68 (uniprot ID: Q15743); expressed in transfected cells; host or cells: HEK293T
Assay: GPR68 Biochemical Assay (Promega GloSensor cAMP assay, GPR68 antagonism)
Type: cell-based
Settings: 15 min
In short: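 HEK293T cells transiently co-transfected with full-length human GPR68 and GloSensor plasmids, preloaded 60 min with GloSensor substrate in pH 8.0 buffer. Compounds (9-point half-log series, top 50 μM final, 0.5% DMSO) added with pH 5.5 buffer (~EC80-90 stimulation); luminescence read after 15 min at room temperature. IC50 from sigmoidal fit of % inhibition.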

[1] = HEK293T cells transiently expressing hGPR68, antagonism of pH 5.5 stimulated cAMP, read-out: hGPR68 IC50
[2] = hGPR68 IC50, HEK293T cells transiently expressing hGPR68, antagonism of pH 5.5 stimulated cAMP

T1 sequence (Q15743 whole entry): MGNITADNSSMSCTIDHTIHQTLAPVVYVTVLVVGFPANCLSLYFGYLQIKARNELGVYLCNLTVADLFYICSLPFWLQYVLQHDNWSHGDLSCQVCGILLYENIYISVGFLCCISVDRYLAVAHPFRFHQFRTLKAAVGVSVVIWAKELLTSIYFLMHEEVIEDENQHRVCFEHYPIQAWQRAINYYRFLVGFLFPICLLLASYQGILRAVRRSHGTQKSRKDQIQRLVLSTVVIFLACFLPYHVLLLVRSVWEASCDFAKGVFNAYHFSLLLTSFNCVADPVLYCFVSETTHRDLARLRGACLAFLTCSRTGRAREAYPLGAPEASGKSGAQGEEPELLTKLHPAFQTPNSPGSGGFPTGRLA

Row | IC50 [1] [nM] | IC50 [2] [nM] | SMILES
1 | < 50 | – | COCc1nn2c(C(=O)N[C@H]3COc4ccc(F)cc43)ccnc2c1C(N)=O [Compound 120, N7-[(3R)-5-fluoro-2,3-dihydrobenzofuran-3-yl]-2-(methoxymethyl)pyrazolo[1,5-a]pyrimidine-3,7-dicarboxamide]
2 | 50 to 500 | – | COCc1nn2c(C(=O)NC3(C)Cc4ccccc4C3)ccnc2c1C(N)=O [Compound 121, 2-(methoxymethyl)-N7-(2-methylindan-2-yl)pyrazolo[1,5-a]pyrimidine-3,7-dicarboxamide]
3 | 50 to 500 | – | COCc1nn2c(C(=O)NC(C)c3ccc(F)cc3)ccnc2c1C(N)=O (stereo not shown) [Compound 122, N7-[1-(4-fluorophenyl)ethyl]-2-(methoxymethyl)pyrazolo[1,5-a]pyrimidine-3,7-dicarboxamide]
4 | < 50 | – | COCc1nn2c(C(=O)N[C@H]3CCOc4cc(F)ccc43)ccnc2c1C(N)=O [Compound 123, 2-(methoxymethyl)-N7-[(4S)-7-fluorochroman-4-yl]pyrazolo[1,5-a]pyrimidine-3,7-dicarboxamide]
5 | 500 to 5000 | – | COCc1nn2c(C(=O)NC3(C)CC4(CC(F)(F)C4)C3)ccnc2c1C(N)=O [Compound 124, N7-(2,2-difluoro-6-methyl-spiro[3.3]heptan-6-yl)-2-(methoxymethyl)pyrazolo[1,5-a]pyrimidine-3,7-dicarboxamide]
6 | 500 to 5000 | – | COCc1nn2c(C(=O)NC(c3ccc(F)cc3)C(F)(F)F)ccnc2c1C(N)=O (stereo not shown) [Compound 125, 2-(methoxymethyl)-N7-[2,2,2-trifluoro-1-(4-fluorophenyl)ethyl]pyrazolo[1,5-a]pyrimidine-3,7-dicarboxamide]
7 | 50 to 500 | – | COCc1nn2c(C(=O)NC3CC4(C3)CC(F)(F)C4)ccnc2c1C(N)=O [Compound 126, N7-(2,2-difluorospiro[3.3]heptan-6-yl)-2-(methoxymethyl)pyrazolo[1,5-a]pyrimidine-3,7-dicarboxamide]
8 | 50 to 500 | – | COCc1nn2c(C(=O)NC3(c4ccc(F)cc4)CC3)ccnc2c1C(N)=O [Compound 127, N7-[1-(4-fluorophenyl)cyclopropyl]-2-(methoxymethyl)pyrazolo[1,5-a]pyrimidine-3,7-dicarboxamide]
9 | < 50 | – | COCc1nn2c(C(=O)N[C@H]3COc4cc(F)ccc43)ccnc2c1C(N)=O [Compound 128, 2-(methoxymethyl)-N7-[(3R)-6-fluoro-2,3-dihydrobenzofuran-3-yl]pyrazolo[1,5-a]pyrimidine-3,7-dicarboxamide]
10 | < 50 | – | COCc1nn2c(C(=O)NC3CC(F)(F)c4ccccc43)ccnc2c1C(N)=O (stereo not shown) [Compound 129, N7-(3,3-difluoroindan-1-yl)-2-(methoxymethyl)pyrazolo[1,5-a]pyrimidine-3,7-dicarboxamide]
11 | < 50 | – | NC(=O)c1c(C2CC2)nn2c(C(=O)NC3Cc4ccccc4C3)ccnc12 [Compound 130, 2-cyclopropyl-N7-indan-2-yl-pyrazolo[1,5-a]pyrimidine-3,7-dicarboxamide]
12 | 500 to 5000 | – | COCc1nn2c(C(=O)NC3CCC34CC(F)(F)C4)ccnc2c1C(N)=O (stereo not shown) [Compound 131, N7-(2,2-difluorospiro[3.3]heptan-7-yl)-2-(methoxymethyl)pyrazolo[1,5-a]pyrimidine-3,7-dicarboxamide]
13 | 50 to 500 | – | COCc1nn2c(C(=O)N[C@H]3CC[C@@H](OC(F)(F)F)CC3)ccnc2c1C(N)=O [Compound 132, 2-(methoxymethyl)-N7-[cis-4-(trifluoromethoxy)cyclohexyl]pyrazolo[1,5-a]pyrimidine-3,7-dicarboxamide]
14 | < 50 | – | COCc1nn2c(C(=O)NCC3CCC(F)(F)CC3)ccnc2c1C(N)=O [Compound 133, N7-[(4,4-difluorocyclohexyl)methyl]-2-(methoxymethyl)pyrazolo[1,5-a]pyrimidine-3,7-dicarboxamide]
15 | < 50 | – | NC(=O)c1c(C2CC2)nn2c(C(=O)NC3Cc4cscc4C3)ccnc12 [Compound 134, 2-cyclopropyl-N7-(5,6-dihydro-4H-cyclopenta[c]thiophen-5-yl)pyrazolo[1,5-a]pyrimidine-3,7-dicarboxamide]
16 | < 50 | – | NC(=O)c1c(C2CC2)nn2c(C(=O)NC3CCC(F)(F)CC3)ccnc12 [Compound 135, 2-cyclopropyl-N7-(4,4-difluorocyclohexyl)pyrazolo[1,5-a]pyrimidine-3,7-dicarboxamide]
17 | < 50 | – | NC(=O)c1c(C2CC2)nn2c(C(=O)NC3CC(F)(F)C3)ccnc12 [Compound 136, 2-cyclopropyl-N7-(3,3-difluorocyclobutyl)pyrazolo[1,5-a]pyrimidine-3,7-dicarboxamide]
18 | < 50 | – | CCCc1nn2c(C(=O)N[C@H]3C[C@@H](OC(F)(F)F)C3)ccnc2c1C(N)=O [Compound 137, 2-propyl-N7-[cis-3-(trifluoromethoxy)cyclobutyl]pyrazolo[1,5-a]pyrimidine-3,7-dicarboxamide]
19 | < 50 | – | NC(=O)c1c(C2CC2)nn2c(C(=O)NC3Cc4ccccc43)ccnc12 (stereo not shown) [Compound 138, N7-(7-bicyclo[4.2.0]octa-1,3,5-trienyl)-2-cyclopropyl-pyrazolo[1,5-a]pyrimidine-3,7-dicarboxamide]

Row | IC50 [1] [nM] | IC50 [2] [nM] | SMILES
20 | < 50 | – | CCCc1nn2c(C(=O)NC3Cc4ccccc4C3)ccnc2c1C(N)=O [Compound 139, N7-indan-2-yl-2-propyl-pyrazolo[1,5-a]pyrimidine-3,7-dicarboxamide]
21 | < 50 | – | NC(=O)c1c(C2CC2)nn2c(C(=O)NCc3ccc(F)cc3)ccnc12 [Compound 140, 2-cyclopropyl-N7-[(4-fluorophenyl)methyl]pyrazolo[1,5-a]pyrimidine-3,7-dicarboxamide]
22 | – | < 50 | NC(=O)c1c(CO)nn2c(C(=O)N[C@H]3C[C@@H](OC(F)(F)F)C3)ccnc12 [Compound 141, 2-(hydroxymethyl)-N7-[cis-3-(trifluoromethoxy)cyclobutyl]pyrazolo[1,5-a]pyrimidine-3,7-dicarboxamide]
23 | < 50 | – | NC(=O)c1c(OCC2CC2)nn2c(C(=O)NC3Cc4ccccc4C3)ccnc12 [Compound 142, 2-(cyclopropylmethoxy)-N7-indan-2-yl-pyrazolo[1,5-a]pyrimidine-3,7-dicarboxamide]
24 | 50 to 500 | – | COCc1nn2c(C(=O)NC3Cc4ccccc4C3)ccnc2c1C(=O)O [Compound 143, 7-(indan-2-ylcarbamoyl)-2-(methoxymethyl)pyrazolo[1,5-a]pyrimidine-3-carboxylic Acid]
25 | < 50 | – | COCc1nn2c(C(=O)NC3COc4ccc(Br)cc4C3)ccnc2c1C(N)=O (stereo not shown) [Compound 144, N7-(6-bromochroman-3-yl)-2-(methoxymethyl)pyrazolo[1,5-a]pyrimidine-3,7-dicarboxamide]
26 | < 50 | – | CNc1nn2c(C(=O)N[C@H]3C[C@@H](OC(F)(F)F)C3)ccnc2c1C(N)=O [Compound 145, 2-(methylamino)-N7-[cis-3-(trifluoromethoxy)cyclobutyl]pyrazolo[1,5-a]pyrimidine-3,7-dicarboxamide]
27 | < 50 | – | COCc1nn2c(C(=S)NC3Cc4ccccc4C3)ccnc2c1C(N)=O [Compound 148, 7-(indan-2-ylcarbamothioyl)-2-(methoxymethyl)pyrazolo[1,5-a]pyrimidine-3-carboxamide]
28 | 50 to 500 | – | COCc1nn2c(C(=O)NC3Cc4ccccc4C3)ccnc2c1C(N)=S [Compound 149, 3-carbamothioyl-N-indan-2-yl-2-(methoxymethyl)pyrazolo[1,5-a]pyrimidine-7-carboxamide]
29 | < 50 | – | NC(=O)c1c(C2CC2)nc2c(C(=O)NC3CCC(F)(F)CC3)ccnn12 [Compound 150, 2-cyclopropyl-N8-(4,4-difluorocyclohexyl)imidazo[1,2-b]pyridazine-3,8-dicarboxamide]
30 | < 50 | – | NC(=O)c1c(C2CC2)nc2c(C(=O)N[C@H]3C[C@@H](OC(F)(F)F)C3)ccnn12 [Compound 151, 2-cyclopropyl-N8-[cis-3-(trifluoromethoxy)cyclobutyl]imidazo[1,2-b]pyridazine-3,8-dicarboxamide]
31 | < 50 | – | COCc1nn2c(C(=O)NC3Cc4ccccc4C3(F)F)ccnc2c1C(N)=O (stereo not shown) [Compound 152, N7-(1,1-difluoroindan-2-yl)-2-(methoxymethyl)pyrazolo[1,5-a]pyrimidine-3,7-dicarboxamide]
32 | < 50 | – | COCc1nn2c(C(=O)NC3COc4cc(F)cc(F)c43)ccnc2c1C(N)=O (stereo not shown) [Compound 153, N7-(4,6-difluoro-2,3-dihydrobenzofuran-3-yl)-2-(methoxymethyl)pyrazolo[1,5-a]pyrimidine-3,7-dicarboxamide]
33 | 50 to 500 | – | COCc1nn2c(C(=O)NC3(C)CCc4ccccc43)ccnc2c1C(N)=O (stereo not shown) [Compound 155, 2-(methoxymethyl)-N7-(1-methylindan-1-yl)pyrazolo[1,5-a]pyrimidine-3,7-dicarboxamide]
34 | – | 50 to 500 | NC(=O)c1c(C2CC2)nn2c(C(=O)NC3CCC(F)(F)CC3)cnnc12 [Compound 156, 7-cyclopropyl-N4-(4,4-difluorocyclohexyl)pyrazolo[5,1-c][1,2,4]triazine-4,8-dicarboxamide]
35 | < 50 | – | [2H]C([2H])([2H])OCc1nn2c(C(=O)N[C@H]3C[C@@H](OC(F)(F)F)C3)ccnc2c1C(N)=O [Compound 157, 2-(trideuteriomethoxymethyl)-N7-[cis-3-(trifluoromethoxy)cyclobutyl]pyrazolo[1,5-a]pyrimidine-3,7-dicarboxamide]
36 | < 50 | – | NC(=O)c1c(COCF)nn2c(C(=O)N[C@H]3C[C@@H](OC(F)(F)F)C3)ccnc12 [Compound 158, 2-(fluoromethoxymethyl)-N7-[cis-3-(trifluoromethoxy)cyclobutyl]pyrazolo[1,5-a]pyrimidine-3,7-dicarboxamide]
37 | < 50 | – | CNc1nn2c(C(=O)NC3Cc4ccccc4C3)ccnc2c1C(N)=O [Compound 159, N7-indan-2-yl-2-(methylamino)pyrazolo[1,5-a]pyrimidine-3,7-dicarboxamide]
